Like-named read-outs stand apart in the source and are kept apart here.
Columns and labels:
[1] = Pharmacokinetic study in rats (oral gavage and tail vein injection, plasma LC-MS/MS); format: in vivo
Protocol: Male SPF-grade SD rats (Beijing Vital River Laboratory Animal Technology Co., Ltd.) with a body weight range of 200 to 250 g were used. After acclimatization, the rats were administered a clear solution of the compound of the present disclosure via oral gavage (Po, fasted overnight before administration with free access to water, food returned 4 hours after administration) and tail vein injection (Iv, free access to food and water throughout the administration). Blood samples were collected from the orbital venous plexus/jugular vein of rats at specified time points after administration (blood collection time points for the PO group: 0.167, 0.5, 1, 2, 4, 6, 8, and 24 h; for the IV group: 0.033, 0.167, 1, 2, 4, 6, 8, and 24 h). The concentration of compounds in plasma was detected by LC-MS/MS (AB SCIEX Qtrap4500). Data were analyzed using WinNonlin (version 5.2.1 Pharsight, Mountain View, CA) with a non-compartmental model to obtain PK parameters (including Cmax, C0, Tmax, AUClast, AUCinf, T1/2, etc.).
Table 3: Results of in vivo pharmacokinetic studies of compounds of the present disclosure in rats
The vehicle for the Po group compound was 5% DMSO + 5% ethanol + 60% PEG400 + 30% normal saline; the vehicle for the Iv group compound was 10% ethanol + 20% pure water + 70% PEG400 solution.

[2] = target: hLPAR1 (human lysophosphatidic acid receptor 1, Accession No.: NM_001401.4) (Homo sapiens, UniProt Q92633); assay: cell-based; conditions: FLIPR method, CHO-K1 cells overexpressing hLPAR1
Chain of hLPAR1 (human lysophosphatidic acid receptor 1, Accession No.: NM_001401.4) (Q92633 whole entry): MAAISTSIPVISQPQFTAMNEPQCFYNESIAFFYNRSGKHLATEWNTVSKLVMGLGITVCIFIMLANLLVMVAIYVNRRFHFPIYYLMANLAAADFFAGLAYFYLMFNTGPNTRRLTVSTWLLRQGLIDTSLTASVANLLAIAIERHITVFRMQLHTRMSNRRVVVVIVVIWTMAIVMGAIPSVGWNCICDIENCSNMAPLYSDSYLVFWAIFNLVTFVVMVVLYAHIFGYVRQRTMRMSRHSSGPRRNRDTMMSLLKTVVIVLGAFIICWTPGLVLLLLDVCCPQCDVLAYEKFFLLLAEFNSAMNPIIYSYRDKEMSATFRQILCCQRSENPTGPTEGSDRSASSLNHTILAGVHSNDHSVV
Protocol: The antagonist properties of the compounds in the present disclosure were determined using the FLIPR (Fluorometric Imaging Plate Reader) method in CHO-K1 cells (Chinese Hamster Ovary cells K1, ATCC) overexpressing hLPAR1 (human lysophosphatidic acid receptor 1, Accession No.: NM_001401.4).
CHO-K1 cells stably expressing hLPAR1 were placed in a cell culture incubator at 37°C with 5% CO2 and cultured in F-12 medium containing 10% FBS (fetal bovine serum, Gibco, 10099-141), 1% penicillin-streptomycin (Gibco, 15140-122), and 0.4 mg/mL Hygromycin B (Gibco, 10687010). 18-24 hours before the FLIPR experiment, the cells were seeded into a 96-well plate at a density of 250,000 cells/mL (25,000 cells/well) and incubated overnight in the cell culture incubator. On the day of the experiment, the medium was removed, and the cells were washed with FLIPR buffer (2.5 mM probenecid (Thermo, P36400), 1.3 mM CaCl2, 3.3 mM Na2CO3, 1 mM MgSO4, 20 mM HEPES (Invitrogen, 15630080), 1× HBSS (Invitrogen, 14065056), 0.1% BSA (BioSharp, 70080030)). 75 µL of […] Fluo-4 AM fluorescent dye (Thermo, F14202) was added to each well and incubated for 1.0 hour at 37°C for dye loading. The 96-well plate was then washed once with buffer, and 50 µL of buffer containing the test compound or vehicle was added to each well, followed by incubation at room temperature for 30 min. The cell plate was then placed into the FLIPR for baseline fluorescence measurement (excitation wavelength at 485 nm, emission wavelength at 525 to 535 nm). Subsequently, 50 µL/well of agonist (final concentration 1 µM oleoyl-L-α-lysophosphatidic acid sodium salt (Sigma, L7260)) or vehicle (ultrapure water) was added, and fluorescence values were measured at 1-second intervals for 2 min. Finally, the output fluorescence counts were analyzed using GraphPad Prism 9.0 software log(inhibitor) vs. response--Variable slope (four parameters) equation to calculate IC50 values.
Table 1: Inhibitory activity data of compounds against LPAR1

[3] = male, rat, SD rats, Iv, 1 mg/kg
[4] = male, rat, SD rats, Iv, 1 mg/kg, read-out: Cmax
[5] = male, rat, SD rats, Po, 1 mg/kg
[6] = male, rat, SD rats, Po, 1 mg/kg, read-out: Cmax
[7] = Table 1, read-out: LPAR1 inhibitory activity IC50
[8] = rat, SD rats, Iv, 1 mg/kg, read-out: Cmax
[9] = rat, SD rats, Po, 1 mg/kg, read-out: Cmax
[10] = LPAR1 inhibitory activity IC50, Table 1

Structure (SMILES): CCC(F)(F)[C@@H](C)OC(=O)Nc1c(-c2ccc(C#C[C@@H]3CC[C@H]3C(=O)O)c(C)n2)nnn1C (mixture of isomers) [212-B, trans-2-((6-(5-(((((R)-3,3-difluoropentan-2-yl)oxy)carbonyl)amino)-1-methyl-1H-1,2,3-triazol-4-yl)-2-methylpyridin-3-yl)ethynyl)cyclobutane-1-carboxylic acid]
- half-life ([1]; male, SD, rat, iv, 1 mg/kg): 7.43 h
- half-life ([1]; male, SD, rat, po, 1 mg/kg): 7.96 h
- AUC(0-t) [1, 3]: 5000 to 10000 ng·h/mL
- Cmax [1, 4]: 800 to 5000 ng/mL
- AUC(0-t) [1, 5]: 5000 to 10000 ng·h/mL
- Cmax [1, 6]: 800 to 5000 ng/mL
- IC50 [2, 7]: 25.9 nM

Structure (SMILES): Cc1nc(-c2nnn(C)c2NC(=O)O[C@H](C)CC(C)(F)F)ccc1C#C[C@@H]1CC[C@H]1C(=O)O (mixture of isomers) [213-B, trans-2-((6-(5-(((((R)-4,4-difluoropentan-2-yl)oxy)carbonyl)amino)-1-methyl-1H-1,2,3-triazol-4-yl)-2-methylpyridin-3-yl)ethynyl)cyclobutane-1-carboxylic acid]
- AUClast ([1]; SD rats, Iv, 1 mg/kg): *** (5000 ng/mL*hr ≤ AUClast < 10000 ng/mL*hr)
- Cmax ([1]; SD rats, Iv, 1 mg/kg): ** (800 ng/mL ≤ Cmax < 5000 ng/mL)
- T1/2 ([1]; SD rats, Iv, 1 mg/kg): 8.67 h
- half-life ([1]; male, SD, rat, po, 3 mg/kg): 9.6 h
- AUC(0-t) ([1]; male, rat, SD rats, Po, 3 mg/kg): 10000 to 20000 ng·h/mL
- Cmax ([1]; male, rat, SD rats, Po, 3 mg/kg, read-out: Cmax): 800 to 5000 ng/mL
- IC50 [2, 7]: 36.8 nM

Structure (SMILES): CCC(F)(F)[C@@H](C)OC(=O)Nc1c(-c2ccc(C#C[C@@H]3CCC[C@H]3C(=O)O)c(C)n2)nnn1C (mixture of isomers) [219-B, trans-2-((6-(5-(((((R)-3,3-difluoropentan-2-yl)oxy)carbonyl)amino)-1-methyl-1H-1,2,3-triazol-4-yl)-2-methylpyridin-3-yl)ethynyl)cyclopentane-1-carboxylic acid]
- half-life ([1]; male, SD, rat, iv, 1 mg/kg): 3.89 h
- half-life ([1]; male, SD, rat, po, 1 mg/kg): 4.24 h
- AUC(0-t) [1, 3]: 5000 to 10000 ng·h/mL
- Cmax [1, 4]: 800 to 5000 ng/mL
- AUC(0-t) [1, 5]: 5000 to 10000 ng·h/mL
- Cmax [1, 6]: 800 to 5000 ng/mL
- IC50 [2, 7]: 11.4 nM

Structure (SMILES): Cc1nc(-c2nnn(C)c2NC(=O)O[C@H](C)CC(C)(C)F)ccc1C#C[C@@H]1CCC[C@H]1C(=O)O (mixture of isomers) [244-B, trans-2-((6-(5-(((((R)-4-fluoro-4-methylpentan-2-yl)oxy)carbonyl)amino)-1-methyl-1H-1,2,3-triazol-4-yl)-2-methylpyridin-3-yl)ethynyl)cyclopentane-1-carboxylic acid]
- half-life ([1]; male, SD, rat, iv, 1 mg/kg): 5.05 h
- half-life ([1]; male, SD, rat, po, 1 mg/kg): 4.07 h
- AUC(0-t) [1, 3]: 5000 to 10000 ng·h/mL
- Cmax [1, 4]: 800 to 5000 ng/mL
- AUC(0-t) [1, 5]: 5000 to 10000 ng·h/mL
- Cmax [1, 6]: 800 to 5000 ng/mL
- IC50 [2, 7]: 19.2 nM

Structure (SMILES): Cc1nc(-c2nnn(C)c2NC(=O)OC(C)c2cc(F)cnc2Cl)ccc1C#CC1(CC(=O)O)CC1 (single isomer, unassigned) [023-A, 2-(1-((6-(5-(((1-(2-chloro-5-fluoropyridin-3-yl)ethoxy)carbonyl)amino)-1-methyl-1H-1,2,3-triazol-4-yl)-2-methylpyridin-3-yl)ethynyl)cyclopropyl)acetic acid]
- half-life ([1]; male, SD, rat, iv, 1 mg/kg): 7.5 h
- AUC(0-t) [1, 3]: 3000 to 5000 ng·h/mL
- Cmax [1, 4]: 5000 to 8000 ng/mL
- IC50 [2, 7]: 37.2 nM

Structure (SMILES): CCC(F)(F)CC(C)OC(=O)Nc1c(-c2ccc(C#CC3CCC3C(=O)O)c(C)n2)nnn1C (single isomer, unassigned) [245-B]
- AUC(0-t) ([1]; rat, SD rats, Iv, 1 mg/kg): 3000 to 5000 ng·h/mL
- half-life ([1]; rat, SD rats, Iv, 1 mg/kg): 7.22 h
- Cmax [1, 8]: 800 to 5000 ng/mL
- AUC(0-t) ([1]; rat, SD rats, Po, 1 mg/kg): 3000 to 5000 ng·h/mL
- half-life ([1]; rat, SD rats, Po, 1 mg/kg): 6.66 h
- Cmax [1, 9]: 200 to 800 ng/mL
- IC50 [2, 7]: 34.6 nM

Structure (SMILES): Cc1nc(-c2nnn(C)c2NC(=O)O[C@H](C)CC(C)(F)F)ccc1C#C[C@H]1CCC[C@@H]1C(=O)O (single isomer, unassigned) [246-B]
- AUC(0-t) ([1]; rat, SD rats, Iv, 1 mg/kg): 5000 to 10000 ng·h/mL
- half-life ([1]; rat, SD rats, Iv, 1 mg/kg): 7.01 h
- Cmax [1, 8]: 800 to 5000 ng/mL
- AUC(0-t) ([1]; rat, SD rats, Po, 1 mg/kg): 3000 to 5000 ng·h/mL
- half-life ([1]; rat, SD rats, Po, 1 mg/kg): 4.4 h
- Cmax [1, 9]: 200 to 800 ng/mL
- IC50 [2, 10]: 25.9 nM

Structure (SMILES): Cc1nc(-c2nnn(C)c2NC(=O)OC(C)CC2CC2)ccc1C#CC1CCC1C(=O)O (single isomer, unassigned) [248-A]
- AUC(0-t) ([1]; rat, SD rats, Iv, 1 mg/kg): 3000 to 5000 ng·h/mL
- half-life ([1]; rat, SD rats, Iv, 1 mg/kg): 7.72 h
- Cmax [1, 8]: 800 to 5000 ng/mL
- AUC(0-t) ([1]; rat, SD rats, Po, 1 mg/kg): 5000 to 10000 ng·h/mL
- half-life ([1]; rat, SD rats, Po, 1 mg/kg): 5.33 h
- Cmax [1, 9]: 200 to 800 ng/mL
- IC50 [2, 7]: 18.1 nM

Structure (SMILES): CCc1nc(-c2nnn(C)c2COC(=O)N(C)CCCCF)ccc1C#CC1(CC(=O)O)CC1 [compound 230]
- IC50 [2, 7]: 59.9 nM

Structure (SMILES): Cc1nc(-c2nnn(C)c2NC(=O)O[C@H](C)CC(C)(F)F)ccc1C#C[C@@H]1CC(F)(F)C[C@H]1C(=O)O [compound 247]
- IC50 [2, 7]: 10.2 nM

Structure (SMILES): CCC(F)(F)C[C@@H](C)OC(=O)Nc1c(-c2ccc(C#CC3(CC(=O)O)CC3)c(C)n2)nnn1C [compound 264]
- IC50 [2, 7]: 47.3 nM

Structure (SMILES): Cc1nc(-c2nnn(C)c2NC(=O)O[C@H](C)CC(C)(C)F)ccc1C#C[C@@H]1CC(F)(F)C[C@H]1C(=O)O [compound 273]
- IC50 [2, 7]: 14.9 nM

Structure (SMILES): Cc1nc(-c2nnn(C)c2NC(=O)O[C@H](C)CC2CC2)ccc1C#CC1(CC(=O)O)CC1 [compound 302]
- IC50 [2, 10]: 24.7 nM

Structure (SMILES): Cc1nc(-c2nnn(C)c2NC(=O)O[C@H](C)C(F)(F)C(C)C)ccc1C#C[C@@H]1CC[C@H]1C(=O)O [compound 307]
- IC50 [2, 7]: 151 nM

Structure (SMILES): Cc1nc(-c2nnn(C)c2NC(=O)O[C@H](C)C(C)C)ccc1C#CC1(CC(=O)O)CC1 [compound 310]
- IC50 [2, 10]: 114 nM

Structure (SMILES): Cc1nc(-c2nnn(C)c2NC(=O)OC(C)C(C)(C)C)ccc1C#CC1(CC(=O)O)CC1 (stereo not shown) [compound 319]
- IC50 [2, 10]: 124 nM

Structure (SMILES): CCC[C@@H](C)OC(=O)Nc1c(-c2ccc(C#CC3(CC(=O)O)CCC3)c(C)n2)nnn1C [compound 325]
- IC50 [2, 10]: 40.3 nM

Structure (SMILES): CCC[C@@H](C)OC(=O)Nc1c(C)noc1-c1ccc(C#C[C@@H]2CC[C@H]2C(=O)O)c(C)n1 [compound 339]
- IC50 [2, 7]: 2.6 nM

Structure (SMILES): Cc1nc(-c2onc(C)c2NC(=O)O[C@H](C)CC(C)(F)F)ccc1C#C[C@@H]1CCC[C@H]1C(=O)O [compound 343]
- IC50 [2, 7]: 5.7 nM

Structure (SMILES): Cc1noc(-c2ccc(C#C[C@@H]3CCC[C@H]3C(=O)O)cn2)c1NC(=O)O[C@H](C)CC(C)(F)F [compound 344]
- IC50 [2, 7]: 104 nM

Structure (SMILES): CCOCc1ccnc(NCc2c(-c3ccc(C#CC4(CC(=O)O)CC4)c(C)n3)nnn2C)n1 [compound 364]
- IC50 [2, 7]: 203 nM

Structure (SMILES): Cc1noc(-c2ccc(C#CC3(CNS(=O)(=O)O)CC3)c(F)c2)c1NC(=O)O[C@H](C)c1ccccc1Cl [compound 460]
- IC50 [2, 7]: 11.8 nM

Source: EP4755881A1 (Wuhan Createrna Science and Technology Co., Ltd., priority 2023, dated 2025)
